Test results taken from US8124834B2, “Use of active cytokinin synthase gene” (Riken, priority 2006, dated 2012).

T1: LOG protein (Oryza sativa subsp. japonica, UniProt Q5ZC82)
T1 sequence (Q5ZC82 1-242): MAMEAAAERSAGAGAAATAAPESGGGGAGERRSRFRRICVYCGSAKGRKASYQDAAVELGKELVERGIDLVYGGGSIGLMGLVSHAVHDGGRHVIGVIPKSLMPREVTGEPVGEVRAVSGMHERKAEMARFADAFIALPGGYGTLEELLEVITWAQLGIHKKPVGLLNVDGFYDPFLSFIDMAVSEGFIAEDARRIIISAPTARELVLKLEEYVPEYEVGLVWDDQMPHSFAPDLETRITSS


How the values were obtained:
[1] = biological target: T1, LOG protein; experiment: Detection of enzyme activity of recombinant LOG protein with cytokinin substrates (HPLC); type: biochemical; parameters: the protein coding region of the LOG gene cDNA was inserted into pCOLD-I (TaKaRa), a His-tag protein expression vector; made in house; host or cells: E. coli BL21(DE3)[pG-Tf2]; details: 3 μg LOG protein, 50 μM substrate, pH7, 30° C., 2 hours, HPLC absorption at 270 nm
Method: The following 8 types of cytokinin substrates were used: N^6-(delta-2-isopentenyl)adenine (iP), trans-zeatin (tZ), cis-zeatin (cZ), iP riboside (iPR), tZ riboside (tZR), cZ riboside (cZR), iPR 5′-monophosphate (iPRMP), and tZR 5′-monophosphate (tZRMP). As reaction conditions, 100 μl of a reaction solution containing 50 mM Tris-HCl, 1 mM MgCl2, and a 50 μM substrate, pH7 was incubated at 30° C. for 2 hours. Thereafter, 10 μl of 20% acetic acid was added to the reaction solution to terminate the reaction, and the reaction solution was then centrifuged at 15,000 rpm at a room temperature for 20 minutes. […] For elution, solvent C (100% acetonitrile) and solvent D (2% acetic acid) were used.

[2] = biological target: T1, LOG protein; experiment: Substrate specificity of LOG protein to nucleotide cytokinin forms and AMP; type: biochemical; parameters: the protein coding region of the LOG gene cDNA was inserted into pCOLD-I (TaKaRa), a His-tag protein expression vector; made in house; host or cells: E. coli BL21(DE3)[pG-Tf2]; details: 0.02 μg LOG protein, 100 μM substrate, pH 6.5, 4 minutes (iPRDP, iPRTP: 0.01 μg, 2 minutes)
Method: The reaction specificity of the LOG protein to a nucleotide cytokinin form was analyzed. […] The following 7 types of substrates were used: iPRMP, tZRMP, dihydrozeatin riboside 5′-monophosphate (DZRMP), cZR 5′-monophosphate (cZRMP), iPR 5′-diphosphate (iPRDP), iPR 5′-triphosphate (iPRTP), and AMP. The reaction conditions are as follows. 0.02 μg of the LOG protein was used for a single reaction, and it was reacted with a 100 μM substrate in 200 μl of a reaction solution containing 50 mM Tris-HCl, 1 mM MgCl2, 1 mM DTT, pH 6.5. Thereafter, 0 minute and 4 minutes after initiation of the reaction, 600 μl of cold acetone was added to the reaction solution to terminate the reaction. The reaction solution was left at rest at −80° C. for 30 minutes, and it was then centrifuged at 15,000 rpm for 20 minutes. Thereafter, a supernatant was dried using a centrifugal thickener. […] Only the injection amount was changed to 50 μl. In the case of iPRDP and iPRTP, the amount of a reaction solution was determined to be 100 μl, the mass of a protein used was determined to be 0.01 μg, and the reaction time was determined to be 2 minutes.

[3] = biological target: T1, LOG protein; experiment: Measurement of Km value of LOG protein to iPRMP and tZRMP; type: biochemical; parameters: the protein coding region of the LOG gene cDNA was inserted into pCOLD-I (TaKaRa), a His-tag protein expression vector; made in house; host or cells: E. coli BL21(DE3)[pG-Tf2]; details: substrate 5-100 μM, 0.02 μg LOG protein, pH 6.5
Method: (§1) In order to obtain the Km value of the LOG protein to typical substrates iPRMP and tZRMP, the following experiment was carried out. 0.02 μg of LOG protein was used for a single reaction, and it was reacted with a substrate in a substrate concentration of each of 5, 8, 15, 30 and 100 μM in 200 μl of a reaction solution containing 50 mM Tris-HCl, 1 mM MgCl2, 1 mM DTT, pH 6.5. Thereafter, 0 minute, 2 minutes and 4 minutes after initiation of the reaction, 600 μl of cold acetone was added to the reaction solution to terminate the reaction. The reaction solution was left at rest at −80° C. for 30 minutes, and it was then centrifuged at 15,000 rpm for 20 minutes. Thereafter, a supernatant was dried using a centrifugal thickener. The resultant was dissolved in 100 μl of 2% acetic acid, and a reaction product was then detected and quantified under the same conditions as those for the liquid chromatography of Example 2. Only the injection amount was changed to 50 μl. The aforementioned experiment was carried out three times, and the Km value was calculated.

[4] = Enzyme properties of AtLOG 1, 2, 3, 4, 5, 7 and 8 proteins having iPRMP as substrate; type: biochemical, Arabidopsis thaliana
Method: as §1
The enzyme activity of each of the purified AtLOG proteins was evaluated under the same reaction conditions as those of Example 2. […] In addition, the enzyme property of each AtLOG protein to iPRMP was determined in the same manner as in Example 5 (Table 4). In Table 4, the Km, Vmax and Kcat values were calculated based on a reaction under the optimal pH condition of each AtLOG protein.

Row | Molecule | reactivity of the substrate with recombinant LOG protein (conversion to base form) [1] | Optimal pH [4] [pH] | further results
1 | cis-zeatin riboside 5′-monophosphate [cZRMP] | – | – | reactivity of LOG protein to the substrate (substrate specificity) [2]: uses as a substrate
2 | CC(CO)CCNc1ncnc2c1ncn2C1OC(COP(=O)(O)O)C(O)C1O (stereo not drawn) [DZRMP, dihydrozeatin riboside 5′-monophosphate] | – | – | reactivity of LOG protein to the substrate (substrate specificity) [2]: uses as a substrate
3 | AtLOG7: Arabidopsis thaliana LOG homolog protein, gene At5g06300, amino acid sequence SEQ ID NO: 14, purified from E. coli (protein, listed as Arabidopsis sp.) MEETKSRFKRICVFCGSSSGKKPSYQEAAIQLGNELVERRIDLVYGGGSVGLMGLVSQAVHHGGRHVLGVIPKTLMPREITGETIGEVKAVADMHQRKAEMARQADAFIALPGGYGTLEELLEVITWAQLGIHRKPVGLLNVDGYYNSLLTFIDKAVDEGFISPMARRIIVSAPNAKELVRQLEEYEPEFDEITSKLVWDEVDRISYVPGSEVATAT | – | 6.5 | –
4 | AtLOG5: Arabidopsis thaliana LOG homolog protein, gene At4g35190, amino acid sequence SEQ ID NO: 12, purified from E. coli (protein, listed as Arabidopsis sp.) MEIVKSRFKRVCVFCGSSSGKRECYSDAATDLAQELVTRRLNLVYGGGSIGLMGLVSQAVHEAGGHVLGIIPRTLMDKEITGETYGEVIAVADMHERKAEMARHSDCFIALPGGYGTLEELLEVIAWAQLGIHDKPVGLLNVDGYYNYLLTFIDKAVDDGFIKPSQRHIFVSAPNAKELVQKLEAYKPVNDGVIAKSRWEVEKKVQQPQQQQQVVFCSNTSMQTEIAL | – | 5.4 | –
5 | AtLOG3: Arabidopsis thaliana LOG homolog protein, gene At2g37210, amino acid sequence SEQ ID NO: 8, purified from E. coli (protein, listed as Arabidopsis sp.) MEIKGESMQKSKFRRICVFCGSSQGKKSSYQDAAVDLGNELVSRNIDLVYGGGSIGLMGLVSQAVHDGGRHVIGIIPKTLMPRELTGETVGEVRAVADMHQRKAEMAKHSDAFIALPGGYGTLEELLEVITWAQLGIHDKPVGLLNVDGYYNSLLSFIDKAVEEGFISPTAREIIVSAPTAKELVKKLEEYAPCHERVATKLCWEMERIGYSSEE | – | 6.5 | –
6 | AtLOG4: Arabidopsis thaliana LOG homolog protein, gene At3g53450, amino acid sequence SEQ ID NO: 10, purified from E. coli (protein, listed as Arabidopsis sp.) MEVNNETMQKSKFGRICVFCGSSQGKKSSYQDAAVDLGNELVLRNIDLVYGGGSIGLMGLVSQAVHDGGRHVIGVIPKTLMPRELTGETVGEVRAVADMHQRKAEMARHSDAFIALPGGYGTLEELLEVITWAQLGIHDKPVGLLNVDGYYNSLLSFIDKAVEEGFISTNARQIIISAPTAKELVKKLEEYSPCHESVATKLCWEIERIDYSSED | – | 6.5 | –
7 | AtLOG8: Arabidopsis thaliana LOG homolog protein, gene At5g11950, amino acid sequence SEQ ID NO: 16, purified from E. coli (protein, listed as Arabidopsis sp.) MEDNQRSRFRKICVFCGSHSGHREVFSDAAIELGNELVKRKIDLVYGGGSVGLMGLISRRVYEGGLHVLGIIPKALMPIEISGETVGDVRVVADMHERKAAMAQEAEAFIALPGGYGTMEELLEMITWSQLGIHKKTVGLLNVDGYYNNLLALFDTGVEEGFIKPGARNIVVSAPTAKELMEKMEEYTPSHMHVASHESWKVEELGDYPGQENKPQ | – | 7.0 | –
8 | AtLOG1: Arabidopsis thaliana LOG homolog protein, gene At2g28305, amino acid sequence SEQ ID NO: 4, purified from E. coli (protein, listed as Arabidopsis sp.) MEIESKFKRICVFCGSSAGNKVSYKDAAIELGTELVSRNIDLVYGGGSIGLMGLISQAVFNGGRHVIGVIPKTLMPREITGETVGEVKAVADMHQRKAEMAKHSDAFIALPGGYGTLEELLEVITWAQLGIHDKPVGLLNVEGYYNSLLSFIDKAVEEGFISPTARHIIVSAPSAKELVKKLEDYVPRHEKVASKKSWEMEQIGLSPTCEISR | – | 6.5 | –
9 | AtLOG2: Arabidopsis thaliana LOG homolog protein, gene At2g35990, amino acid sequence SEQ ID NO: 6, purified from E. coli (protein, listed as Arabidopsis sp.) MEETKSRFRRICVFCGSSSGNKTTYHDAALQLAHQLVERNIDLVYGGGSVGLMGLISQAVHDGGRHVLGIIPKSLAPREITGESIGEVITVSTMHQRKAEMGRQADAFIALPGGYGTFEELLEVITWSQLGIHTKPVGLLNVDGFYDSLLTFIDKAVDEGFVSSTARRIIVSAPNAPQLLQLLEEYVPKHDDFVSKMVWDNTTDAFTLEGDSF | – | 6.5 | –

More lines, main results first:

Row | reactivity of the substrate with recombinant LOG protein (conversion to base form) [1] | Molecule | Optimal pH [4] [pH] | further results
10 | no reactivity | C/C(=C\CNc1ncnc2nc[nH]c12)CO [tZ, trans-zeatin] | – | –
11 | no reactivity | C/C(=C\CNc1ncnc2c1ncn2[C@@H]1O[C@H](CO)[C@@H](O)[C@H]1O)CO [tZR, tZ riboside] | – | –
12 | no reactivity | CC(C)=CCNc1ncnc2c1ncn2[C@@H]1O[C@H](CO)[C@@H](O)[C@H]1O [iPR, iP riboside] | – | –
13 | no reactivity | C/C(=C/CNc1ncnc2c1ncn2[C@@H]1O[C@H](CO)[C@@H](O)[C@H]1O)CO [cZR, cZ riboside] | – | –
14 | completely converted | CC(C)=CCNc1ncnc2c1ncn2[C@@H]1O[C@H](COP(=O)(O)O)[C@@H](O)[C@H]1O [iPRMP, isopentenyladenine riboside 5′-monophosphate] | – | reactivity of LOG protein to the substrate (substrate specificity) [2]: uses as a substrate; specific activity of the LOG protein [3]: 5.6 μmol/min^−1/mg^−1 protein
15 | no reactivity | C/C(=C/CNc1ncnc2nc[nH]c12)CO [cZ, cis-zeatin] | – | –
16 | no reactivity | CC(C)=CCNc1ncnc2nc[nH]c12 [iP, N^6-(delta-2-isopentenyl)adenine] | – | –
